Experimental data reported in the supplement of paper PMC10307832.

Assays:
Test in all cases: relative viability (nuclei count vs DMSO), 5 days (fraction); higher = more cells survive
OSI-027 + Olaparib = compound: COc1cccc2cc(-c3nc([C@H]4CC[C@H](C(=O)O)CC4)n4ncnc(N)c34)[nH]c12 [OSI-027] + O=C(c1cc(Cc2n[nH]c(=O)c3ccccc23)ccc1F)N1CCN(C(=O)C2CC2)CC1 [Olaparib] (partner 8 µM)
Method in brief: (§1)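 Nuclei were stained with Hoechst during a one-step fixation (final 0.05% Triton X-100, 1% formaldehyde, 1 ug/ml Hoechst) carried out 5 days after dosing, then counted on 4× images. The cells, lung cancer lines in 1536-well plates, had been dosed by pin tool the day after seeding with one drug alone or a fixed anchor-drug dose plus five library-drug doses (not always all listed) in √10 steps. Relative viability is the nuclei count in treated wells divided by that in vehicle wells, and each value is the median of duplicate plates.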

Alpelisib + Foretinib = compound: Cc1nc(NC(=O)N2CCC[C@H]2C(N)=O)sc1-c1ccnc(C(C)(C)C(F)(F)F)c1 [Alpelisib] + COc1cc2c(Oc3ccc(NC(=O)C4(C(=O)Nc5ccc(F)cc5)CC4)cc3F)ccnc2cc1OCCCN1CCOCC1 [Foretinib] (partner 0.25 µM)
Method in brief: as §1

Alpelisib + Linsitinib = compound: Cc1nc(NC(=O)N2CCC[C@H]2C(N)=O)sc1-c1ccnc(C(C)(C)C(F)(F)F)c1 [Alpelisib] + C[C@]1(O)C[C@@H](c2nc(-c3ccc4ccc(-c5ccccc5)nc4c3)c3c(N)nccn32)C1 [Linsitinib] (partner 1 µM)
Method in brief: as §1

Alpelisib + AZD7762 = compound: Cc1nc(NC(=O)N2CCC[C@H]2C(N)=O)sc1-c1ccnc(C(C)(C)C(F)(F)F)c1 [Alpelisib] + NC(=O)Nc1cc(-c2cccc(F)c2)sc1C(=O)N[C@H]1CCCNC1 [AZD7762] (partner 0.2 µM)
Method in brief: as §1

Cell Line | relative viability (OSI-027 + Olaparib; first compound 0.01 µM) | relative viability (OSI-027 + Olaparib; first compound 0.03162 µM) | relative viability (OSI-027 + Olaparib; first compound 0.1 µM) | relative viability (OSI-027 + Olaparib; first compound 0.3162 µM) | relative viability (OSI-027 + Olaparib; first compound 1 µM) | relative viability (Alpelisib + Foretinib; first compound 0.04 µM) | relative viability (Alpelisib + Foretinib; first compound 0.1265 µM) | relative viability (Alpelisib + Foretinib; first compound 0.4 µM) | relative viability (Alpelisib + Foretinib; first compound 1.265 µM) | relative viability (Alpelisib + Foretinib; first compound 4 µM) | relative viability (Alpelisib + Linsitinib; first compound 0.04 µM) | relative viability (Alpelisib + Linsitinib; first compound 0.1265 µM) | relative viability (Alpelisib + Linsitinib; first compound 0.4 µM) | relative viability (Alpelisib + Linsitinib; first compound 1.265 µM) | relative viability (Alpelisib + Linsitinib; first compound 4 µM) | relative viability (Alpelisib + AZD7762; first compound 0.04 µM) | relative viability (Alpelisib + AZD7762; first compound 0.1265 µM) | relative viability (Alpelisib + AZD7762; first compound 0.4 µM) | relative viability (Alpelisib + AZD7762; first compound 1.265 µM) | relative viability (Alpelisib + AZD7762; first compound 4 µM)
201T | 0.909 | 0.908 | 0.838 | 0.887 | 0.802 | 1.11 | 1.06 | 1.29 | 0.841 | 0.71 | 0.93 | 0.936 | 0.989 | 0.806 | 0.917 | 0.616 | 0.636 | 0.546 | 0.477 | 0.469
A549 | 0.465 | 0.258 | 0.305 | 0.282 | 0.0927 | 0.926 | 0.875 | 0.956 | 0.662 | 0.599 | 0.647 |  | 0.577 | 0.5 | 0.445 |  |  |  |  | 
A-427 | 0.817 | 0.835 | 0.643 | 0.593 | 0.506 | 1.19 | 0.833 | 1.11 | 0.831 | 0.992 | 1.11 | 1.14 | 1.22 | 1.01 | 1.09 | 0.712 | 0.649 | 0.72 | 0.574 | 0.617
ABC-1 | 0.667 | 0.686 | 0.795 | 0.859 | 0.404 | 1.28 | 0.876 | 0.878 | 0.611 | 0.78 | 0.716 | 0.695 | 0.86 | 0.847 | 0.709 | 0.996 | 0.875 | 1.2 | 0.598 | 0.69
BEN | 1.15 | 1.19 | 0.769 | 0.554 | 0.527 | 0.792 | 0.401 | 0.732 | 0.737 | 0.521 | 0.859 | 0.857 | 1.14 | 0.828 | 0.959 | 0.67 | 0.59 | 0.756 | 0.825 | 0.549
CAL-12T | 0.751 | 0.749 | 0.777 | 0.53 | 0.335 | 1.08 | 1.24 | 1.14 | 1.06 | 1.07 | 0.801 | 0.67 | 0.814 | 0.784 | 0.76 | 0.7 | 0.593 | 0.754 | 0.566 | 0.643
COR-L23 | 0.377 | 0.335 | 0.208 | 0.401 | 0.279 | 1.01 | 0.933 | 1.12 | 0.843 | 0.839 | 0.836 | 0.889 | 0.856 | 0.69 | 0.592 |  |  |  |  | 
COR-L 105 | 0.713 | 0.722 | 0.726 | 0.571 | 0.685 | 1.08 | 1.26 | 1.02 | 1 | 1.08 | 1.04 | 0.874 | 0.976 | 0.902 | 0.841 |  |  |  |  | 
Calu-6 | 0.568 | 0.621 | 0.637 | 0.64 | 0.577 | 0.926 | 0.842 | 0.931 | 0.871 | 0.617 | 0.906 | 0.978 | 1.03 | 0.806 | 0.912 |  |  |  |  | 
ChaGo-K-1 | 0.429 | 0.423 | 0.451 | 0.415 | 0.317 | 0.881 | 0.91 | 1.01 | 0.807 | 0.8 |  |  |  |  |  | 0.865 | 0.909 | 0.875 | 0.791 | 0.672
EBC-1 | 0.662 | 0.736 | 0.67 | 0.579 | 0.331 | 0.101 | 0.0979 | 0.0957 | 0.108 | 0.114 | 0.81 | 0.822 | 1.02 | 0.825 | 0.793 |  |  |  |  | 
EKVX | 0.659 | 0.935 | 0.88 | 0.832 | 0.516 | 0.519 | 0.726 | 0.66 | 0.67 | 0.73 | 0.923 | 0.941 | 1.11 | 0.901 | 0.821 | 0.868 | 0.662 | 0.675 | 0.636 | 0.533
EMC-BAC-2 | 0.487 | 0.489 | 0.468 | 0.402 | 0.29 | 0.973 | 0.867 | 1.01 | 0.689 | 0.592 | 0.773 | 0.811 | 0.79 | 0.657 | 0.678 | 1.1 | 1.05 | 0.946 | 0.832 | 0.581
EPLC-272H | 0.714 | 0.495 | 0.661 | 0.386 | 0.298 | 0.723 | 0.674 | 0.754 | 0.376 | 0.422 | 1.1 | 0.977 | 1.34 | 0.937 | 0.893 | 0.237 | 0.251 | 0.24 | 0.271 | 0.186
HCC-44 | 1.06 | 1.01 | 1 | 1 | 0.716 |  |  |  |  |  | 0.707 | 0.7 | 0.738 | 0.582 | 0.543 | 1 | 1.02 | 1.02 | 1.03 | 1.07
